Assay [1] deals with Pyruvate kinase PKLR (Homo sapiens, UniProt P30613, R532W). Kind of assay: Activation of PKR R532W mutant (unknown origin) incubated for 60 mins in presence of ADP, PEP and NADH by Spectraax microplate reader based assay.
In assay [2] the target is T1, Pyruvate kinase PKLR (Homo sapiens, UniProt P30613). Put plainly: Activation of wild type PKR (unknown origin) incubated for 60 mins in presence of ADP, PEP and NADH by Spectraax microplate reader based assay.
Assay [3] has as its target T1, Pyruvate kinase PKLR. Put plainly: Activation of wild type PKR (unknown origin) by cell based assay.

Bounds are passed on as bounds.

Pyruvate kinase PKLR (Homo sapiens, UniProt P30613, R532W), sequence (P30613 whole entry R532W): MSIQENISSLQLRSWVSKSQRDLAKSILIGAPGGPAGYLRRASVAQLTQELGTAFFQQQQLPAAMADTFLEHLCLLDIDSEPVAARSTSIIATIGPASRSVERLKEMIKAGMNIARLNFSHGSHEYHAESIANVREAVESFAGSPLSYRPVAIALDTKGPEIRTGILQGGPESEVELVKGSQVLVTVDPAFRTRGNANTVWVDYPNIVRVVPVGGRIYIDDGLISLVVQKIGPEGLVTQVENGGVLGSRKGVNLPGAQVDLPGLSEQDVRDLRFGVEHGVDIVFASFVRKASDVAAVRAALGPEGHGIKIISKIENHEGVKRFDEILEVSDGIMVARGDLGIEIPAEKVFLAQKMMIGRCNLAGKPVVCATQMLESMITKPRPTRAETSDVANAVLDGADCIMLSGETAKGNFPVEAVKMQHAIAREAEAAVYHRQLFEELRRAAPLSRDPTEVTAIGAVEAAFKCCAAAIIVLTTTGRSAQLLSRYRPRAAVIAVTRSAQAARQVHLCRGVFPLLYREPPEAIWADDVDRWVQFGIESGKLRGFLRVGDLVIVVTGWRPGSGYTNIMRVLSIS
T1 sequence (P30613 whole entry): as the sequence (P30613 whole entry R532W) above, with W532R counted along it

Usually AC50 stands for the concentration at which the activity in the assay is half-maximal. As for `O=C(c1ccc(NS(=O)(=O)c2cccc3cccnc23)cc1)N1CCC(CO)(Cc2ccccc2)CC1`, the AC50 in assay [1], in assay [2] and in assay [3] was under 100 nM throughout.

As for `CC(C)CC1(O)CCN(C(=O)c2ccc(NS(=O)(=O)c3cccc4c3OCO4)cc2)CC1`, the AC50 in assay [1], in assay [2] and in assay [3] was under 100 nM in each case.

With `CC(C)CC1(O)CCN(C(=O)c2ccc(NS(=O)(=O)c3ccc(F)c4cccnc34)cc2)CC1`, the half-maximal activity concentration (AC50) in assay [1], in assay [2] and in assay [3] was under 100 nM each time.

On to `O=C(c1ccc(NS(=O)(=O)c2cccc3nccnc23)cc1)N1CCC(O)(CCC(F)=C(F)F)CC1`, for which the AC50 in assay [1], in assay [2] and in assay [3] was under 100 nM throughout.

`CCCC1(O)CCN(C(=O)c2ccc(NS(=O)(=O)c3cccc4cccnc34)cc2)CC1`: the AC50 in assay [1], in assay [2] and in assay [3] was under 100 nM throughout.

Consider `O=C(c1ccc(NS(=O)(=O)c2cccc3cccnc23)cc1)N1CCC(O)(c2ccc(F)cc2)CC1`, for which the AC50 in assay [1], in assay [2] and in assay [3] was under 100 nM throughout.

As to `O=C(c1ccc(NS(=O)(=O)c2cccc3cccnc23)cc1)N1CCC(O)(c2cnsc2)CC1`, the AC50 in assay [1], in assay [2] and in assay [3] was under 100 nM in each case.

For the compound `O=C(c1ccc(NS(=O)(=O)c2cccc3cccnc23)cc1)N1CCC(O)(c2ncccc2C(F)(F)F)CC1`, the AC50 in assay [1], in assay [2] and in assay [3] was under 100 nM throughout.

For `O=C(c1ccc(NS(=O)(=O)c2cccc3cccnc23)cc1)N1CCC(O)(CC2CC2(F)F)CC1` (centres undefined), the AC50 in assay [1], in assay [2] and in assay [3] was under 100 nM each time.

In the case of `O=C(c1ccc(NS(=O)(=O)c2cccc3cccnc23)cc1)N1CCC(O)(c2ccccc2O)CC1`, the AC50 in assay [1] and in assay [3] was under 100 nM each time.

As to `O=C(c1ccc(NS(=O)(=O)c2cccc3cccnc23)c(Cl)c1)N1CCC(O)(c2ccccc2Cl)CC1`, the AC50 in assay [1], in assay [2] and in assay [3] was under 100 nM throughout.

In the case of `O=C(c1ccc(NS(=O)(=O)c2cccc3cccnc23)c(F)c1)N1CCC(O)(Cc2ccccc2)CC1`, the AC50 in assay [1], in assay [2] and in assay [3] was under 100 nM each time.

With `Cc1ncccc1C1(O)CCN(C(=O)c2ccc(NS(=O)(=O)c3cccc4cccnc34)cc2)CC1`, the AC50 in assay [1], in assay [2] and in assay [3] was under 100 nM in each case.

In the case of `O=C(c1ccc(NS(=O)(=O)c2cccc3cccnc23)cc1)N1CCC(O)(c2ccncc2)CC1`, the AC50 in assay [1], in assay [2] and in assay [3] was under 100 nM each time.

For the compound `O=C(c1ccc(NS(=O)(=O)c2cccc3cccnc23)cc1)N1CCC(O)(c2ncccc2Cl)CC1`, the AC50 in assay [1], in assay [2] and in assay [3] was under 100 nM each time.

As to `Cc1cc(NS(=O)(=O)c2cccc3cccnc23)ccc1C(=O)N1CCC(O)(c2ccccc2Cl)CC1`, the AC50 in assay [1], in assay [2] and in assay [3] was under 100 nM each time.

Consider `O=C(c1ccc(NS(=O)(=O)c2cccc3cccnc23)cc1Cl)N1CCC(O)(c2ccccc2Cl)CC1`, for which the AC50 in assay [1], in assay [2] and in assay [3] was under 100 nM throughout.

As for `CC(F)(F)CCC1(O)CCN(C(=O)c2ccc(NS(=O)(=O)c3cccc4nc(N)cnc34)cc2)CC1`, the AC50 in assay [1], in assay [2] and in assay [3] was under 100 nM throughout.

For `CC(C)(C)C1(O)CCN(C(=O)c2ccc(NS(=O)(=O)c3cccc4cccnc34)cc2)CC1`, the AC50 in assay [1], in assay [2] and in assay [3] was under 100 nM throughout.

Regarding `O=C(c1ccc(NS(=O)(=O)c2cccc3scnc23)cc1)N1CCC(O)(CCC=C(F)F)CC1`, the AC50 in assay [1], in assay [2] and in assay [3] was under 100 nM in each case.

For `O=C(c1ccc(NS(=O)(=O)c2cccc3nccnc23)cc1)N1CCC(O)(c2ccccc2Cl)CC1`, the AC50 in assay [1], in assay [2] and in assay [3] was under 100 nM each time.

`Cc1noc(C)c1CC1(O)CCN(C(=O)c2ccc(NS(=O)(=O)c3cccc4nccnc34)cc2)CC1`: the AC50 in assay [1], in assay [2] and in assay [3] was under 100 nM throughout.

As to `O=C(c1ccc(NS(=O)(=O)c2cccc3scnc23)cc1)N1CCC(O)(c2sncc2Cl)CC1`, the AC50 in assay [1], in assay [2] and in assay [3] was under 100 nM in each case.

Consider `O=C(c1ccc(NS(=O)(=O)c2cccc3cccnc23)cc1F)N1CCC(O)(c2ccccc2Cl)CC1`, for which the AC50 in assay [1], in assay [2] and in assay [3] was under 100 nM each time.

In the case of `O=C(c1ccc(NS(=O)(=O)c2cccc3cccnc23)cc1)N1CCC(O)(CCC(F)F)CC1`, the AC50 in assay [1], in assay [2] and in assay [3] was under 100 nM each time.

Consider `Cn1cc(C2(O)CCN(C(=O)c3ccc(NS(=O)(=O)c4cccc5scnc45)cc3)CC2)cn1`, for which the AC50 in assay [1] and in assay [3] was under 100 nM throughout.

In the case of `Nc1c(O)cccc1S(=O)(=O)Nc1ccc(C(=O)N2CCC(O)(c3ccccc3Cl)CC2)cc1`, the AC50 in assay [2] and in assay [3] was under 100 nM throughout.

With `N#Cc1cc(NS(=O)(=O)c2cccc3cccnc23)ccc1C(=O)N1CCC(O)(c2ccccc2Cl)CC1`, the half-maximal activity concentration (AC50) in assay [1], in assay [2] and in assay [3] was under 100 nM each time.

`Cc1cccc(CC2(O)CCN(C(=O)c3ccc(NS(=O)(=O)c4cccc5cccnc45)cc3)CC2)c1`: the AC50 in assay [1], in assay [2] and in assay [3] was under 100 nM in each case.

Consider `O=C(c1ccc(NS(=O)(=O)c2cccc3cccnc23)cc1)N1CCC(O)(c2ccccc2)CC1`, for which the AC50 in assay [1], in assay [2] and in assay [3] was under 100 nM in each case.

As to `O=C(c1ccc(NS(=O)(=O)c2cccc3cc(F)cnc23)cc1)N1CCC(O)(c2ccccc2)CC1`, the AC50 in assay [1], in assay [2] and in assay [3] was under 100 nM throughout.

Turning to `O=C(c1ccc(NS(=O)(=O)c2cccc3cccnc23)cc1)N1CCC(O)(c2cccc(C(F)(F)F)n2)CC1`, the AC50 in assay [1], in assay [2] and in assay [3] was under 100 nM in each case.

For `O=C(c1ccc(NS(=O)(=O)c2cccc3cccnc23)cc1)N1CCC(O)(c2cccc(F)c2)CC1`, the concentration at half-maximal activity (AC50) in assay [1], in assay [2] and in assay [3] was under 100 nM in each case.

On to `Cn1nccc1CC1(O)CCN(C(=O)c2ccc(NS(=O)(=O)c3cccc4nccnc34)cc2)CC1`, for which the AC50 in assay [1], in assay [2] and in assay [3] was under 100 nM in each case.

For `O=C(c1ccc(NS(=O)(=O)c2cccc3scnc23)cc1)N1CCC(O)(CC2CCC2)CC1`, the AC50 in assay [1], in assay [2] and in assay [3] was under 100 nM throughout.

For the compound `O=C(c1ccc(NS(=O)(=O)c2cccc3scnc23)cc1)N1CCC(O)(CCCC(F)(F)F)CC1`, the AC50 in assay [1], in assay [2] and in assay [3] was under 100 nM in each case.

For `CC(C)CC1(O)CCN(C(=O)c2ccc(NS(=O)(=O)c3cccc(O)c3N)cc2)CC1`, the AC50 in assay [2] and in assay [3] was under 100 nM throughout.

`O=C(c1ccc(NS(=O)(=O)c2cccc3cccnc23)cc1)N1CCC(O)(c2ccncc2Cl)CC1`: the AC50 in assay [1], in assay [2] and in assay [3] was under 100 nM each time.

For `CC(F)(F)CCC1(O)CCN(C(=O)c2ccc(NS(=O)(=O)c3cccc4nccnc34)cc2)CC1`, the AC50 in assay [2] and in assay [3] was under 100 nM throughout.

Turning to `O=C(c1ccc(NS(=O)(=O)c2cccc3scnc23)cc1)N1CCC(O)(c2ccccc2Cl)CC1`, the AC50 in assay [1], in assay [2] and in assay [3] was under 100 nM throughout.

On to `O=C(c1ccc(NS(=O)(=O)c2cccc3cccnc23)cc1)N1CCC(O)(c2ccccc2F)CC1`, for which the AC50 in assay [1], in assay [2] and in assay [3] was under 100 nM each time.

As for `CC(C)CC1(OC(=O)OCOP(=O)(O)O)CCN(C(=O)c2ccc(NS(=O)(=O)c3cccc4nccnc34)cc2)CC1`, the AC50 in assay [3] is under 100 nM.

Compound `O=C(c1ccc(NS(=O)(=O)c2cccc3nccnc23)cc1)N1CCC(O)(c2ccccc2)CC1` gave an AC50 in assay [3] of under 100 nM.

Turning to `O=C(c1ccc(NS(=O)(=O)c2cccc3nccnc23)cc1)N1CCC(O)(CCCC(F)F)CC1`, the AC50 in assay [1], in assay [2] and in assay [3] was under 100 nM each time.

`COc1cccc(CC2(O)CCN(C(=O)c3ccc(NS(=O)(=O)c4cccc5cccnc45)cc3)CC2)c1`: the AC50 in assay [1], in assay [2] and in assay [3] was under 100 nM each time.

Turning to `Cc1cc(C(=O)N2CCC(O)(c3cccc(F)c3F)CC2)ccc1NS(=O)(=O)c1cccc2nccnc12`, the AC50 in assay [1], in assay [2] and in assay [3] was under 100 nM each time.

Take `CC(C)(F)CC1(O)CCN(C(=O)c2ccc(NS(=O)(=O)c3cccc4scnc34)cc2)CC1`: the AC50 in assay [1] and in assay [3] was under 100 nM each time.

Regarding `O=C(c1ccc(NS(=O)(=O)c2ccc(F)c3cccnc23)cc1)N1CCC(O)(c2ccccc2Cl)CC1`, the AC50 in assay [1], in assay [2] and in assay [3] was under 100 nM throughout.

For the compound `Cc1cccnc1C1(O)CCN(C(=O)c2ccc(NS(=O)(=O)c3cccc4cccnc34)cc2)CC1`, the AC50 in assay [1], in assay [2] and in assay [3] was under 100 nM in each case.

For `CS(=O)(=O)c1cccc(C2(O)CCN(C(=O)c3ccc(NS(=O)(=O)c4cccc5cccnc45)cc3)CC2)c1`, the AC50 in assay [2] and in assay [3] was under 100 nM throughout.

Source of the values: ChEMBL document CHEMBL3727356, “Therapeutic compounds and compositions” (2014).
